Entries after “also recorded” stand apart in the source; their conditions may differ.
How the values were obtained:
[1] = target: T1, ASK1 (Homo sapiens, UniProt Q99683); assay: ASK1 autophosphorylation in vitro kinase assay; format: biochemical; settings: up to 50 μM, listed as CID-2878746
T1 construct: expressed in transfected cells; host or cells: HEK293T
T1 sequence (Q99683 1-1374): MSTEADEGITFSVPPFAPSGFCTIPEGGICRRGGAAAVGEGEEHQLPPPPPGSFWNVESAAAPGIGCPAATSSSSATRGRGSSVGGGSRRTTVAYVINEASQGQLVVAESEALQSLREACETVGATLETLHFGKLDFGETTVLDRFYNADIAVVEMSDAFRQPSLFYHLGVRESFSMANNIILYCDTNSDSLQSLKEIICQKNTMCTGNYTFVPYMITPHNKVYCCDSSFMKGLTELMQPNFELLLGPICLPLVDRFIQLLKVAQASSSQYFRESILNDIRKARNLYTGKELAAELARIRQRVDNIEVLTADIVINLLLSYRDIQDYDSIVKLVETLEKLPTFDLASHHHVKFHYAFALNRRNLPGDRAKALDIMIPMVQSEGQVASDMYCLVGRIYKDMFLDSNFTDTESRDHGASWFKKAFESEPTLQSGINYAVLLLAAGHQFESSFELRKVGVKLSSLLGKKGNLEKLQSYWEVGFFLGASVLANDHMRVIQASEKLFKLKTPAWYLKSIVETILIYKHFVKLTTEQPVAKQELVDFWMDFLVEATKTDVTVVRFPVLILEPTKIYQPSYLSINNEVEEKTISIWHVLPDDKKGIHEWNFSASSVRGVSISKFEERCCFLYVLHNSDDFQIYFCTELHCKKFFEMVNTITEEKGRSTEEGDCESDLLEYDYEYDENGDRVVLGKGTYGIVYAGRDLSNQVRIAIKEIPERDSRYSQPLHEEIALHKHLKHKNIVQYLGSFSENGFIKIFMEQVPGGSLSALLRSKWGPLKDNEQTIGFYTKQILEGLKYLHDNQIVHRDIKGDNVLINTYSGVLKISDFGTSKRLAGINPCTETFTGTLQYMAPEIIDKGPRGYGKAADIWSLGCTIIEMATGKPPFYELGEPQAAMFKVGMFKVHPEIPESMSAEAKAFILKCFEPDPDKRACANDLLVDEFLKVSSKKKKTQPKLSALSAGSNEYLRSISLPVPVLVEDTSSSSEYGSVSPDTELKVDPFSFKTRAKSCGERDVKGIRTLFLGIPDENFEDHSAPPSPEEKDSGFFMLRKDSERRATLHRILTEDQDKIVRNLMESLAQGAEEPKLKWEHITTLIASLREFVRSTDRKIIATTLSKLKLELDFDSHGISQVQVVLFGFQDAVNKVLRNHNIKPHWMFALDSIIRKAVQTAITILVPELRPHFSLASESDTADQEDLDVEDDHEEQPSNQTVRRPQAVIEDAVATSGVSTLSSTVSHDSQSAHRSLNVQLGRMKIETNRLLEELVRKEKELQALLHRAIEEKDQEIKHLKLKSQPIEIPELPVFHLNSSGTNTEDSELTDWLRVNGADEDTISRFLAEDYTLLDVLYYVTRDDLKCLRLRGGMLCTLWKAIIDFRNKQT
Method: Suppression of thapsigargin-induced phosphorylation of p38MAPK was also measured by a quantitative ELISA-methods, with IC50 for p38MAPK phosphorylation estimated at <5 μM. In contrast, thapsigargin-induced expression of CHOP, expression of ATF4, proteolytic processing of ATF6, phosphorylation of eIF2a (Ser 51), auto-phosphorylation of Ire1a or auto-phosphorylation of ASK1 were not inhibited directly by CID-2878746 at concentrations up to 50 μM tested by in vitro kinase assay using p32-γ-ATP substrate. […] Thapsigargin-induced reductions in phosphorylation of ASK1 at the serine 967 site in ASK1 transfected 293T cells are inhibited by compound 5962123 at concentrations of 50-100 μM, as determined by immunoblotting using anti-phospho-specific (ser 967) antibody, but thapsigargin-induced changes in phosphorylation of ASK1 at ser 83 and thr 845 are not modulated by compound 5962123 at concentrations as high as 100 μM in ASK1-transfected HEK293T cells.

[2] = system: HeLa human cervical cancer; assay: Thapsigargin-induced death of HeLa cells, ATP content assay; format: cell-based
Method: In addition to CSM14.1 cells, when tested at 25 μM, Compound 5962123 protected by >50% against thapsigargin-induced death of several tumor cell lines (HeLa human cervical cancer, SW1 melanoma cell, PPC1, human prostate cancer), mouse neural stem cell C17.2 (both differentiated [neuronal phenotype] and non-differentiated [stem cell phenotype]) as determined by ATP content assay, and primary rat cortical neurons as determined by microscopy assay measuring the percentage of NeuN-immunopositive cells with either normal or apoptotic nuclear morphology (Hoechst dye staining).
For PC12, cells were stimulated with 20 ng/ml NGF for five days; for C17.2, cells were stimulated with serum reduction, and 1% N2 incubation for three days; for CSM14.1, cells were cultured at 39° C. for 5-7 days.

[3] = system: Jurkat human T-leukemia; assay: Thapsigargin-induced death of Jurkat cells, ATP content assay; format: cell-based; settings: 25 μM
Method: To explore whether compounds broadly protect cells of various lineages versus only neuronal cells, we tested all 26 hits for ability to rescue CSM14.1 (neuronal), and Jurkat (lymphoid), cell lines from cell death induced by TG. […] CSM 14.1 (FIG. 15, left) and Jurkat cells (FIG. 15, right) were cultured overnight at 3,000 cells per well or at 30,000 cells per well, respectively, in 96-well plates. Wells received DMSO alone or 25 μM compounds in DMSO, followed by treatment with or without TG (15 μM). After culturing for 24 hrs, ATP content was determined, expressing data as a percentage control relative to cells treated only with DMSO (mean ±SD; n=3). The data reveal that one of the compounds protects CSM14.1 but not Jurkat cells from TG-induced cell death (as measured by the ATPlite assay). […]
In addition to CSM14.1 cells, when tested at 25 μM, Compound 5962123 protected by >50% against thapsigargin-induced death of several tumor cell lines (HeLa human cervical cancer, SW1 melanoma cell, PPC1, human prostate cancer), mouse neural stem cell C17.2 (both differentiated [neuronal phenotype] and non-differentiated [stem cell phenotype]) as determined by ATP content assay, and primary rat cortical neurons as determined by microscopy assay measuring the percentage of NeuN-immunopositive cells with either normal or apoptotic nuclear morphology (Hoechst dye staining). […]

CCN(CC)c1ccc(C2Nc3ccccc3NC3=C2C(=O)CC(c2ccccc2)C3)cc1 (centres unmarked) [Compound 5962123, 6-(4-diethylaminophenyl)-9-phenyl-5,6,8,9,10,11-hexahydrobenzo[c][1,5]benzodiazepin-7-one]
ASK1 autophosphorylation [1]: not inhibited
Protection against thapsigargin-induced death, HeLa ([2]; 25 μM, ATP content assay): > 50%
Cytoprotective activity in thapsigargin-treated HeLa ([2]; ATP content assay): demonstrated
Cytoprotective activity, HeLa (Result) ([2]; thapsigargin 15 μM, ATP content, compound ≦25 μM): + (+indicates >50% rescue of cell viability relative to untreated cells not exposed to thapsigargin at compound concentration of ≦25 μM)
Protection of Jurkat cells from thapsigargin-induced cell death [3]: does not protect; also recorded: inactive

— patent US20080293699A1, “Inhibitors of thapsigargin-induced cell death” (priority 2007, published 2008)
